Experimental data published in patent US8906928B2, “Substituted pyrazolo-pyrrolo-pyridine-dione compounds” (ArQule, Inc., priority 2009, dated 2014).

Tests used:
Format in all cases: cell-based
DLD-1 = assay: MTS assay (cell growth inhibition), DLD-1; conditions: DLD-1 cells, 72 hours incubation with test compound; concentration not given
Experimental: (§1) Cells were maintained at 37° C., 5% CO2 in DMEM media supplemented with 1% fetal bovine serum, penicillin/streptomycin and fungizone (Invitrogen). Cells were seeded into 96-well tissue culture plates at 3000 per well and cultured at 37° C. for 18 hours. Test compounds were dissolved and diluted to 300× in DMSO then diluted 1:40 in DMEM. Cells were incubated with test compounds for 72 hours followed by incubation with tetrazolium compound (3-(4,5-dimethylthiazol-2-yl)-5-(3-carboxymethoxyphenyl)-2-(4-sulfophenyl)-2H-tetrazolium, inner salt; MTS) and the electron coupling reagent, phenazine methosulfate (PMS) for 4 hours. […] The ability of compounds to inhibit cell growth in this assay is correlated with the reduction of dehydrogenase enzyme activity found in metabolically active cells. The measurement of the absorbance of the formazan was assessed using an ENVISION™ (Perkin Elmer) microplate reader at 492 nm. The calculated IC50 value is the concentration of the test compound that causes a 50% decrease in the absorbance.

MDA-MB = assay: MTS assay (cell growth inhibition), MDA-MB; conditions: MDA-MB cells, 72 hours incubation with test compound; concentration not given
Experimental: as §1

PC-3 = assay: MTS assay (cell growth inhibition), PC-3; conditions: PC-3 cells, 72 hours incubation with test compound; concentration not given
Experimental: as §1

Kato III = assay: MTS assay (cell growth inhibition), Kato III; conditions: Kato III cells, 72 hours incubation with test compound; concentration not given
Experimental: as §1

PACA-2 = assay: MTS assay (cell growth inhibition), PACA-2; conditions: PACA-2 cells, 72 hours incubation with test compound; concentration not given
Experimental: as §1

NCI-H1299 = assay: MTS assay (cell growth inhibition), NCI-H1299; conditions: NCI-H1299 cells, 72 hours incubation with test compound; concentration not given
Experimental: as §1

In the case of `Cc1c(C)c(C)c(CN2C(=O)c3cnc4[nH]ncc4c3C2=O)c(C)c1C` [Example 8, 7-(pentamethylbenzyl)pyrazolo[3,4-b]pyrrolo[3,4-d]pyridine-6,8(3H,7H)-dione], the “MTS CELL KILL DATA (% INHIBITION) DLD-1” value (DLD-1) is reported as “C (C = <50% INHIBITION)”, the “MTS CELL KILL DATA (% INHIBITION) MDA-MB” value (MDA-MB) is reported as “B (B = 50-79% INHIBITION)” and the “MTS CELL KILL DATA (% INHIBITION) PC-3” value (PC-3) is reported as “A (A = 80-100% INHIBITION)”. The “MTS CELL KILL DATA (% INHIBITION) Kato III” value (Kato III) was “C (C = <50% INHIBITION)”, the “MTS CELL KILL DATA (% INHIBITION) PACA-2” value (PACA-2) was “C (C = <50% INHIBITION)” and the “MTS CELL KILL DATA (% INHIBITION) NCI-H1299” value (NCI-H1299) was “C (C = <50% INHIBITION)”.

`O=C1c2cnc3[nH]nc(-c4cccc(F)c4)c3c2C(=O)N1CCc1ccccc1` [Example 165, 1-(3-fluorophenyl)-7-(2-phenylethyl)pyrazolo[3,4-b]pyrrolo[3,4-d]pyridine-6,8(3H,7H)-dione] was tested, and the “MTS CELL KILL DATA (% INHIBITION) DLD-1” value (DLD-1) was “A (A = 80-100% INHIBITION)”, the “MTS CELL KILL DATA (% INHIBITION) MDA-MB” value (MDA-MB) was “A (A = 80-100% INHIBITION)” and the “MTS CELL KILL DATA (% INHIBITION) PC-3” value (PC-3) was “A (A = 80-100% INHIBITION)”. The “MTS CELL KILL DATA (% INHIBITION) Kato III” value (Kato III) was “A (A = 80-100% INHIBITION)”, the “MTS CELL KILL DATA (% INHIBITION) PACA-2” value (PACA-2) was “A (A = 80-100% INHIBITION)” and the “MTS CELL KILL DATA (% INHIBITION) NCI-H1299” value (NCI-H1299) was “C (C = <50% INHIBITION)”.

In the case of `O=C1c2cnc3[nH]ncc3c2C(=O)N1Cc1ccccc1Br` [Example 99, 7-(2-bromobenzyl)pyrazolo[3,4-b]pyrrolo[3,4-d]pyridine-6,8(3H,7H)-dione], the “MTS CELL KILL DATA (% INHIBITION) DLD-1” value (DLD-1) is reported as “C (C = <50% INHIBITION)”, the “MTS CELL KILL DATA (% INHIBITION) MDA-MB” value (MDA-MB) is reported as “C (C = <50% INHIBITION)” and the “MTS CELL KILL DATA (% INHIBITION) PC-3” value (PC-3) is reported as “C (C = <50% INHIBITION)”. The “MTS CELL KILL DATA (% INHIBITION) Kato III” value (Kato III) was “C (C = <50% INHIBITION)”, the “MTS CELL KILL DATA (% INHIBITION) PACA-2” value (PACA-2) was “C (C = <50% INHIBITION)” and the “MTS CELL KILL DATA (% INHIBITION) NCI-H1299” value (NCI-H1299) was “C (C = <50% INHIBITION)”.

With `O=C1c2cnc3[nH]nc(-c4ccc(F)c(F)c4)c3c2C(=O)N1CCc1ccccc1` [Example 162, 1-(3,4-difluorophenyl)-7-(2-phenylethyl)pyrazolo[3,4-b]pyrrolo[3,4-d]pyridine-6,8(3H,7H)-dione] the “MTS CELL KILL DATA (% INHIBITION) DLD-1” value (DLD-1) was “C (C = <50% INHIBITION)”, the “MTS CELL KILL DATA (% INHIBITION) MDA-MB” value (MDA-MB) was “C (C = <50% INHIBITION)” and the “MTS CELL KILL DATA (% INHIBITION) PC-3” value (PC-3) was “C (C = <50% INHIBITION)”. The “MTS CELL KILL DATA (% INHIBITION) Kato III” value (Kato III) was “C (C = <50% INHIBITION)”, the “MTS CELL KILL DATA (% INHIBITION) PACA-2” value (PACA-2) was “B (B = 50-79% INHIBITION)” and the “MTS CELL KILL DATA (% INHIBITION) NCI-H1299” value (NCI-H1299) was “C (C = <50% INHIBITION)”.

`O=C1NCCN1CCN1C(=O)c2cnc3[nH]ncc3c2C1=O` [Example 6, 7-[2-(2-oxoimidazolidin-1-yl)ethyl]pyrazolo[3,4-b]pyrrolo[3,4-d]pyridine-6,8(3H,7H)-dione] was tested, and the “MTS CELL KILL DATA (% INHIBITION) DLD-1” value (DLD-1) was “C (C = <50% INHIBITION)”, the “MTS CELL KILL DATA (% INHIBITION) MDA-MB” value (MDA-MB) was “A (A = 80-100% INHIBITION)” and the “MTS CELL KILL DATA (% INHIBITION) PC-3” value (PC-3) was “A (A = 80-100% INHIBITION)”. For the same molecule, the “MTS CELL KILL DATA (% INHIBITION) Kato III” value (Kato III) was “A (A = 80-100% INHIBITION)”, the “MTS CELL KILL DATA (% INHIBITION) PACA-2” value (PACA-2) was “C (C = <50% INHIBITION)” and the “MTS CELL KILL DATA (% INHIBITION) NCI-H1299” value (NCI-H1299) was “A (A = 80-100% INHIBITION)”.

With `O=C1c2ccccc2C(=O)N1CCN1C(=O)c2cnc3[nH]ncc3c2C1=O` [Example 131, 7-[2-(1,3-dioxo-1,3-dihydro-2H-isoindol-2-yl)ethyl]pyrazolo[3,4-b]pyrrolo[3,4-d]pyridine-6,8(3H,7H)-dione] the “MTS CELL KILL DATA (% INHIBITION) DLD-1” value (DLD-1) was “A (A = 80-100% INHIBITION)”, the “MTS CELL KILL DATA (% INHIBITION) MDA-MB” value (MDA-MB) was “A (A = 80-100% INHIBITION)” and the “MTS CELL KILL DATA (% INHIBITION) PC-3” value (PC-3) was “A (A = 80-100% INHIBITION)”. The “MTS CELL KILL DATA (% INHIBITION) Kato III” value (Kato III) was “A (A = 80-100% INHIBITION)”, the “MTS CELL KILL DATA (% INHIBITION) PACA-2” value (PACA-2) was “A (A = 80-100% INHIBITION)” and the “MTS CELL KILL DATA (% INHIBITION) NCI-H1299” value (NCI-H1299) was “A (A = 80-100% INHIBITION)”.
